This note sets out measurements from US20250235543A1, “MODIFIED PROTEINS AND PROTEIN DEGRADERS” (Cullgen (Shanghai), Inc., priority 2021, published 2025).

Where two headings read alike, the source gives them in different places. Some results are limits rather than exact numbers.

The subject of one experiment is cyclin D1. Description: Cyclin D1 percentage degradation in Calu-1 cells (immunoblotting). The class given is cell-based. The settings on record: 200 nM, 16 hours. In a few lines:
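Cyclin D1 degradation was assessed by western blot. Clarified lysates, obtained by RIPA lysis with inhibitors and centrifugation at 13,000 rpm, were normalized by BCA protein assay and separated by SDS-PAGE. Bands were detected with Western ECL Substrate on a Bio-Rad ChemiDoc MP Imaging system and quantified in Image Lab software to derive percentage degradation.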
In general terms: In western blotting, separated proteins are transferred to a membrane and probed.

For another experiment, the target named is T1, CDK4 (Homo sapiens, UniProt P11802).
T1 construct: endogenous in cells; host or cells: Calu-1
Nature of the experiment: CDK4 percentage degradation in Calu-1 cells (immunoblotting). To be noted: read-out: CDK4 Degradation (200 nM). It is filed as cell-based. In a few lines:
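CDK4 degradation was measured by immunoblotting. Cells were washed in cold PBS and lysed in RIPA buffer with inhibitors for 30 min at 4° C., then spun at 13,000 rpm to clear. After BCA protein determination, lysates were heated at 99° C. for 5 min in Laemmli buffer, resolved on SDS-PAGE, imaged on a ChemiDoc MP with ECL substrate, and band intensities quantified.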

T1 sequence (P11802 2-303 limits assumed): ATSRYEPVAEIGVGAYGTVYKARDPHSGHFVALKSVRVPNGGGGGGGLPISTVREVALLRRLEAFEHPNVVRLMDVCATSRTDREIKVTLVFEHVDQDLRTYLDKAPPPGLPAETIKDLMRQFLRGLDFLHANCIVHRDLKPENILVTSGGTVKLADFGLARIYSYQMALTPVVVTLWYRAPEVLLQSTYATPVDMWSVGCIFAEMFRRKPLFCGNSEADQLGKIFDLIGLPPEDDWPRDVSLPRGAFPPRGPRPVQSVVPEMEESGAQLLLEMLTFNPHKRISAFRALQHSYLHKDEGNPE
T1 sequence (P24385 whole entry partner): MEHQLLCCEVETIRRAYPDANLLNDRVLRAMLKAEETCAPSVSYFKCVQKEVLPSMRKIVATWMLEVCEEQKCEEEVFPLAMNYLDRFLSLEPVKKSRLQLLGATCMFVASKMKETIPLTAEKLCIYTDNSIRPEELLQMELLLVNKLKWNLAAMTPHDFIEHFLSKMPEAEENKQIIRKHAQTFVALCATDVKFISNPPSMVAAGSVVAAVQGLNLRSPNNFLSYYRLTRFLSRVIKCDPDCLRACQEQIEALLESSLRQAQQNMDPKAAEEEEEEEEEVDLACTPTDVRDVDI
T1 sequence (Q16531 2-1140 limits assumed, further chain): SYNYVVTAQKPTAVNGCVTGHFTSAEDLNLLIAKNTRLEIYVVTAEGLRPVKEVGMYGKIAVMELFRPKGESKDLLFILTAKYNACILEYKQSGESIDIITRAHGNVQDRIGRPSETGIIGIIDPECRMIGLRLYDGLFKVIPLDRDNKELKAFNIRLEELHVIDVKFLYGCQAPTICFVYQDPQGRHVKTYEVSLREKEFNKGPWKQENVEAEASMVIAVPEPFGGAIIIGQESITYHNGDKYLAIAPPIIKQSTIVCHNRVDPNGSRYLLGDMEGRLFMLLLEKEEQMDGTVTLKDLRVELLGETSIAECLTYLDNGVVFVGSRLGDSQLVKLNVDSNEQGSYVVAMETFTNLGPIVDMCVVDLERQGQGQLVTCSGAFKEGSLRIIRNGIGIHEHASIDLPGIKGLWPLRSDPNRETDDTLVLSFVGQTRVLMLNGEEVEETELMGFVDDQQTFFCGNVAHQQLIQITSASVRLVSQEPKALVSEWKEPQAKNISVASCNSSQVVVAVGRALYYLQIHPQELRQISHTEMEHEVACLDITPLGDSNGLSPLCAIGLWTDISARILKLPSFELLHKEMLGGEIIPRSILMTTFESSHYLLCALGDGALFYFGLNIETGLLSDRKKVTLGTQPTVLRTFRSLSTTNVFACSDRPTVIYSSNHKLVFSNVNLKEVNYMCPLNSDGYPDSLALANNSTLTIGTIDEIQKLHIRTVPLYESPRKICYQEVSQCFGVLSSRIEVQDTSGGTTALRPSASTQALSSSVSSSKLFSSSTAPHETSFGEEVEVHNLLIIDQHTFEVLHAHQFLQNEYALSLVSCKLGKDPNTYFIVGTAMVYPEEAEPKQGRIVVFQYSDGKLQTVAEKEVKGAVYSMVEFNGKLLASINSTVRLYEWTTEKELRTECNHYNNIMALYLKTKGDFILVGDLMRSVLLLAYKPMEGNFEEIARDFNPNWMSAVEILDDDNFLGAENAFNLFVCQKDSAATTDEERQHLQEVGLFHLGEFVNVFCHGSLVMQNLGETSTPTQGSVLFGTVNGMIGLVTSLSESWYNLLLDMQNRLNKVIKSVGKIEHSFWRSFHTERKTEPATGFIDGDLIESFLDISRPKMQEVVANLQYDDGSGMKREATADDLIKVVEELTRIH

As for `CCc1nc(NC(=O)c2ccccc2NC(=O)CCOCCOCCNC(=O)CN2CCN(c3ccc(Nc4ncc5c(C)c(C(C)=O)c(=O)n(C6CCCC6)c5n4)nc3)CC2)sc1C` [CPD-075, 2-(3-(2-(2-(2-(4-(6-((6-Acetyl-8-cyclopentyl-5-methyl-7-oxo-7,8-dihydropyrido[2,3-d]pyrimidin-2-yl)amino)pyridin-3-yl)piperazin-1-yl)acetamido)ethoxy)ethoxy)propanamido)-N-(4-ethyl-5-methylthiazol-2-yl)benzamide], in the experiment on cyclin D1, the “CyclinD1 Degradation (200 nM)” value is listed as “A (protein percentage degradation >=80%)”. On CDK4 (Calu-1 cells, 200 nM, 16 hours), the inhibition at 0.2 µM was above 80%.
In the case of `CC(=O)c1c(C)c2cnc(Nc3ccc(N4CCN(CC(=O)NCCOCCOCCC(=O)Nc5ccccc5C(=O)Nc5cc(C)n(C(C)C)n5)CC4)cn3)nc2n(C2CCCC2)c1=O` [CPD-076, 2-(3-(2-(2-(2-(4-(6-((6-Acetyl-8-cyclopentyl-5-methyl-7-oxo-7,8-dihydropyrido[2,3-d]pyrimidin-2-yl)amino)pyridin-3-yl)piperazin-1-yl)acetamido)ethoxy)ethoxy)propanamido)-N-(1-isopropyl-5-methyl-1H-pyrazol-3-yl)benzamide], the “CyclinD1 Degradation (200 nM)” value with cyclin D1 is “C (protein percentage degradation <50%, and >=30%)”. For the same compound, the inhibition at 0.2 µM at CDK4 (Calu-1 cells, 200 nM, 16 hours) is 50 to 80%.
For the compound `CC(=O)c1c(C)c2cnc(Nc3ccc(N4CCN(CC(=O)NCCOCCOCCC(=O)Nc5ccccc5C(=O)Nc5nc(C(F)(F)F)c(C)s5)CC4)cn3)nc2n(C2CCCC2)c1=O` [CPD-077, 2-(3-(2-(2-(2-(4-(6-((6-Acetyl-8-cyclopentyl-5-methyl-7-oxo-7,8-dihydropyrido[2,3-d]pyrimidin-2-yl)amino)pyridin-3-yl)piperazin-1-yl)acetamido)ethoxy)ethoxy)propanamido)-N-(5-methyl-4-(trifluoromethyl)thiazol-2-yl)benzamide], the “CyclinD1 Degradation (200 nM)” value in the experiment on cyclin D1 is recorded as “D (protein percentage degradation <30%)”. For the same compound, the inhibition at 0.2 µM on CDK4 (Calu-1 cells, 200 nM, 16 hours) lay in the range of 50 to 80%.
`CC(=O)c1c(C)c2cnc(Nc3ccc(N4CCN(CCCCCCCCCCNc5cccc(C(=O)Nc6nc(C)c(C)s6)c5C)CC4)cn3)nc2n(C2CCCC2)c1=O` [CPD-078, 3-((10-(4-(6-((6-Acetyl-8-cyclopentyl-5-methyl-7-oxo-7,8-dihydropyrido[2,3-d]pyrimidin-2-yl)amino)pyridin-3-yl)piperazin-1-yl)decyl)amino)-N-(4,5-dimethylthiazol-2-yl)-2-methylbenzamide]: the “CyclinD1 Degradation (200 nM)” value in the experiment with cyclin D1 is on record as “D (protein percentage degradation <30%)”. The inhibition at 0.2 µM at CDK4 (Calu-1, 16 h) was below 30%.
Regarding `CC(=O)c1c(C)c2cnc(Nc3ccc(N4CCN(CC(=O)NCCOCCOCCC(=O)Nc5ccccc5C(=O)Nc5cc(C6CC6)n(C)n5)CC4)cn3)nc2n(C2CCCC2)c1=O` [CPD-079, 2-(3-(2-(2-(2-(4-(6-((6-Acetyl-8-cyclopentyl-5-methyl-7-oxo-7,8-dihydropyrido[2,3-d]pyrimidin-2-yl)amino)pyridin-3-yl)piperazin-1-yl)acetamido)ethoxy)ethoxy)propanamido)-N-(5-cyclopropyl-1-methyl-1H-pyrazol-3-yl)benzamide], in the experiment on cyclin D1, the “CyclinD1 Degradation (200 nM)” value is “D (protein percentage degradation <30%)”. The inhibition at 0.2 µM at CDK4 (Calu-1 cells, 200 nM, 16 hours) was below 30%.
Regarding `CC(=O)c1c(C)c2cnc(Nc3ccc(N4CCN(CC(=O)NCCOCCOCCC(=O)Nc5ccccc5C(=O)Nc5nc(C6CCN(C)CC6)c(C)s5)CC4)cn3)nc2n(C2CCCC2)c1=O` [CPD-080, 2-(3-(2-(2-(2-(4-(6-((6-Acetyl-8-cyclopentyl-5-methyl-7-oxo-7,8-dihydropyrido[2,3-d]pyrimidin-2-yl)amino)pyridin-3-yl)piperazin-1-yl)acetamido)ethoxy)ethoxy)propanamido)-N-(5-methyl-4-(1-methylpiperidin-4-yl)thiazol-2-yl)benzamide], the “CyclinD1 Degradation (200 nM)” value with cyclin D1 was “D (protein percentage degradation <30%)”. At CDK4 (Calu-1 cells, 200 nM, 16 hours), the inhibition at 0.2 µM was below 30%.
The corresponding values for `CC(=O)c1c(C)c2cnc(Nc3ccc(N4CCN(CC(=O)NCCOCCOCCC(=O)Nc5ccccc5C(=O)Nc5ccc(F)cn5)CC4)cn3)nc2n(C2CCCC2)c1=O` [CPD-081, 2-(3-(2-(2-(2-(4-(6-((6-Acetyl-8-cyclopentyl-5-methyl-7-oxo-7,8-dihydropyrido[2,3-d]pyrimidin-2-yl)amino)pyridin-3-yl)piperazin-1-yl)acetamido)ethoxy)ethoxy)propanamido)-N-(5-fluoropyridin-2-yl)benzamide] are “A (protein percentage degradation >=80%)” and above 80%.
For the compound `CC(=O)c1c(C)c2cnc(Nc3ccc(N4CCN(CC(=O)NCCOCCOCCC(=O)Nc5ccccc5C(=O)Nc5ccc(Cl)cn5)CC4)cn3)nc2n(C2CCCC2)c1=O` [CPD-082, 2-(3-(2-(2-(2-(4-(6-((6-Acetyl-8-cyclopentyl-5-methyl-7-oxo-7,8-dihydropyrido[2,3-d]pyrimidin-2-yl)amino)pyridin-3-yl)piperazin-1-yl)acetamido)ethoxy)ethoxy)propanamido)-N-(5-chloropyridin-2-yl)benzamide], in the experiment with cyclin D1, the “CyclinD1 Degradation (200 nM)” value is “A (protein percentage degradation >=80%)”. In addition, the inhibition at 0.2 µM at CDK4 (Calu-1 cells, 200 nM, 16 hours) was above 80%.
On to `CC(=O)c1c(C)c2cnc(Nc3ccc(N4CCN(CC(=O)NCCOCCOCCC(=O)Nc5ccccc5C(=O)Nc5ccc(C#N)cn5)CC4)cn3)nc2n(C2CCCC2)c1=O` [CPD-083, 2-(3-(2-(2-(2-(4-(6-((6-Acetyl-8-cyclopentyl-5-methyl-7-oxo-7,8-dihydropyrido[2,3-d]pyrimidin-2-yl)amino)pyridin-3-yl)piperazin-1-yl)acetamido)ethoxy)ethoxy)propanamido)-N-(5-cyanopyridin-2-yl)benzamide], for which the “CyclinD1 Degradation (200 nM)” value with cyclin D1 was “A (protein percentage degradation >=80%)”. For the same compound, the inhibition at 0.2 µM at CDK4 (Calu-1 cells, 200 nM, 16 hours) was 50 to 80%.
`CC(=O)c1c(C)c2cnc(Nc3ccc(N4CCN(CC(=O)NCCOCCOCCC(=O)Nc5ccccc5C(=O)Nc5ccc(C(F)(F)F)cn5)CC4)cn3)nc2n(C2CCCC2)c1=O` [CPD-084, 2-(3-(2-(2-(2-(4-(6-((6-Acetyl-8-cyclopentyl-5-methyl-7-oxo-7,8-dihydropyrido[2,3-d]pyrimidin-2-yl)amino)pyridin-3-yl)piperazin-1-yl)acetamido)ethoxy)ethoxy)propanamido)-N-(5-(trifluoromethyl)pyridin-2-yl)benzamide]: the “CyclinD1 Degradation (200 nM)” value with cyclin D1 is listed as “A (protein percentage degradation >=80%)”. Moreover, the inhibition at 0.2 µM at CDK4 (Calu-1 cells, 200 nM, 16 hours) lay in the range of 50 to 80%.
With `COc1ccc(NC(=O)c2ccccc2NC(=O)CCOCCOCCNC(=O)CN2CCN(c3ccc(Nc4ncc5c(C)c(C(C)=O)c(=O)n(C6CCCC6)c5n4)nc3)CC2)nn1` [CPD-085, 2-(3-(2-(2-(2-(4-(6-((6-Acetyl-8-cyclopentyl-5-methyl-7-oxo-7,8-dihydropyrido[2,3-d]pyrimidin-2-yl)amino)pyridin-3-yl)piperazin-1-yl)acetamido)ethoxy)ethoxy)propanamido)-N-(6-methoxypyridazin-3-yl)benzamide], in the experiment on cyclin D1, the “CyclinD1 Degradation (200 nM)” value is given as “A (protein percentage degradation >=80%)”. For the same compound, the inhibition at 0.2 µM on CDK4 (Calu-1 cells, 200 nM, 16 hours) was above 80%.
As for `CC(=O)c1c(C)c2cnc(Nc3ccc(N4CCN(CCNCCOCCOCCNc5cccc(C(=O)Nc6nc(C)c(C)s6)c5C)CC4)cn3)nc2n(C2CCCC2)c1=O` [CPD-086, 3-((2-(2-(2-((2-(4-(6-((6-Acetyl-8-cyclopentyl-5-methyl-7-oxo-7,8-dihydropyrido[2,3-d]pyrimidin-2-yl)amino)pyridin-3-yl)piperazin-1-yl)ethyl)amino)ethoxy)ethoxy)ethyl)amino)-N-(4,5-dimethylthiazol-2-yl)-2-methylbenzamide], the “CyclinD1 Degradation (200 nM)” value in the experiment on cyclin D1 is “D (protein percentage degradation <30%)”. The inhibition at 0.2 µM at CDK4 (Calu-1, 16 h) was below 30%.
As to `CC(=O)c1c(C)c2cnc(Nc3ccc(N4CCN(CC(=O)NCCCNc5ccc(C)c(C(=O)Nc6nc(C)c(C)s6)c5)CC4)cn3)nc2n(C2CCCC2)c1=O` [CPD-087, 5-((3-(2-(4-(6-((6-Acetyl-8-cyclopentyl-5-methyl-7-oxo-7,8-dihydropyrido[2,3-d]pyrimidin-2-yl)amino)pyridin-3-yl)piperazin-1-yl)acetamido)propyl)amino)-N-(4,5-dimethylthiazol-2-yl)-2-methylbenzamide], the “CyclinD1 Degradation (200 nM)” value in the experiment on cyclin D1 is given as “D (protein percentage degradation <30%)”. The inhibition at 0.2 µM on CDK4 (Calu-1 cells, 200 nM, 16 hours) is below 30%.
As for `CC(=O)c1c(C)c2cnc(Nc3ccc(N4CCN(CC(=O)NCCCCNc5ccc(C)c(C(=O)Nc6nc(C)c(C)s6)c5)CC4)cn3)nc2n(C2CCCC2)c1=O` [CPD-088, 5-((4-(2-(4-(6-((6-Acetyl-8-cyclopentyl-5-methyl-7-oxo-7,8-dihydropyrido[2,3-d]pyrimidin-2-yl)amino)pyridin-3-yl)piperazin-1-yl)acetamido)butyl)amino)-N-(4,5-dimethylthiazol-2-yl)-2-methylbenzamide], in the experiment with cyclin D1, the “CyclinD1 Degradation (200 nM)” value is reported as “D (protein percentage degradation <30%)”. Moreover, the inhibition at 0.2 µM on CDK4 (Calu-1 cells, 200 nM, 16 hours) is below 30%.
For the compound `CC(=O)c1c(C)c2cnc(Nc3ccc(N4CCN(CC(=O)NCCOCCOCCNc5ccc(C)c(C(=O)Nc6nc(C)c(C)s6)c5)CC4)cn3)nc2n(C2CCCC2)c1=O` [CPD-089, 5-((2-(2-(2-(2-(4-(6-((6-Acetyl-8-cyclopentyl-5-methyl-7-oxo-7,8-dihydropyrido[2,3-d]pyrimidin-2-yl)amino)pyridin-3-yl)piperazin-1-yl)acetamido)ethoxy)ethoxy)ethyl)amino)-N-(4,5-dimethylthiazol-2-yl)-2-methylbenzamide], the “CyclinD1 Degradation (200 nM)” value in the experiment on cyclin D1 was “B (protein percentage degradation <80%, and >=50%)”. Besides, on CDK4 (Calu-1 cells, 200 nM, 16 hours), the inhibition at 0.2 µM was 50 to 80%.
